Test results as given in patent US9481630B2, “Ingenane-type diterpene compound, and pharmaceutical composition for treating or preventing viral infectious diseases containing same” (priority 2011, dated 2016).

Test system: NK92 cells
Assay: IFN-γ production in NK92 cells, released IFN-γ in culture supernatant by ELISA
Assay type: cell-based, human
Settings: for effect on IFN-γ production: 10 nM, similar to the same dose of PMA (positive control)
Experimental: NK92 cells (human NK lymphoma) were obtained from American Type Culture Collection. NK92 cells were kept in α-MEM (Invitrogen, US) containing 20% fetal bovine serum (Invitrogen), 2 mM […], […] (Invitrogen), and were replenished with 100 U/mL IL-2 (Peprotech, US). NK92 cell culture was carried out in a culture medium at 37° C. under 5% CO2 humidity atmosphere. The amount of human IFN-γ was analyzed according to the protocol of a supplier using an assay kit (Endogen, Woburn, US).
In order to detect IFN-γ, 2×10^5 NK92 cell/mL was inoculated in a 48-well culture plate, and was cultured for 12 hours with each isolated compounds in an α-MEM medium containing 20% FBS and IL-2. The IFN-γ released in the culture supernatant was analyzed using an ELISA method. The absorbance was measured on a microplate reader and the treatment and the analysis for all the compounds were repeated twice. The cell toxicity of the compound-treated NK92 cells was evaluated through an MTT analysis.

| Molecule | activity for inducing IFN-γ production (5 μM) | effect on IFN-γ production | other results |
| --- | --- | --- | --- |
| gansuiphorin A [Compound 5] | had activity for inducing IFN-γ production |  |  |
| CCCCCCCCCC(=O)OCC1=C[C@@H]2C(=O)[C@]3(C=C(C)[C@H](O)[C@@]3(O)[C@@H]1O)[C@H](C)C[C@@H]1[C@H]2C1(C)C [Compound 3, 20-O-decanoylingenol] |  |  | activity for inducing IFN-γ production (100 nM): had activity for inducing IFN-γ production |
| C[C@H](C/C=C/C(C)(C)O)[C@@H]1CC[C@]2(C)C3=C(CC[C@@]12C)[C@@]1(C)CC[C@H](O)C(C)(C)C1CC3 (stereo partly drawn) [Compound 8, (20R,23E)-eupha-8,23-diene-3b,25-diol] | had activity for inducing IFN-γ production |  |  |
| CCCCC/C=C\C=C\C(=O)O[C@H]1C(C)=C[C@]23C(=O)[C@@H](C=C(COC(C)=O)[C@@H](O)[C@]12O)[C@H]1[C@@H](C[C@H]3C)C1(C)C [Compound 4, 20-O-acetylingenol-3-O-(2′E,4′Z) decadienate] |  | significant effects on the IFN-γ production |  |
| CCCCCCCCCCCC(=O)O[C@@]12C[C@@H](C)[C@]34C=C(C)[C@H](O)[C@@]3(O)[C@H](OC(=O)C(C)C(C)C)C(C)=C[C@H](C4=O)C1C2(C)C (stereo partly drawn) [Compound 1, 5-O-(2,3-dimethylbutanoyl)-13-O-dodecanoyl-20-O-deoxyingenol] |  |  | activity for inducing IFN-γ production (1.25 μM): had activity for inducing IFN-γ production |
| CCCCCCCCCCCC(=O)O[C@@]12C[C@@H](C)[C@]34C=C(C)[C@H](OC(=O)C(C)C(C)C)[C@@]3(O)[C@H](O)C(CO)=C[C@H](C4=O)[C@@H]1C2(C)C (stereo partly drawn) [Compound 6, 3-O-(2,3-dimethylbutanoyl)-13-O-dodecanoylingenol] |  | significant effects on the IFN-γ production |  |
